Values quoted from earlier work as cited in patent US20020182585A1, “Combination and method using EDTA, cystine, zinc and selenium for anti-thrombin effect and for anti-platelet aggregation and measurement of efficacy” (priority 2001, published 2002).

Settings: EDTA binding of the metal cation; adapted from Schwartzenbach, 1957

Row | Compound | Stability Constant Log K
1 | [Ni+2] [Ni^++] | 18.0
2 | [Pb+2] [Pb^++] | 18.5
3 | [Cd+2] [Cd^++] | 16.5
4 | [Co+2] [Co^++] | 16.3
5 | [Hg+2] [Hg^++] | 21.8
